For 26 molecules, solubility and EC50 results are on record in patent US8815857B2 (Boehringer Ingelheim International GmbH, priority 2011, dated 2014).

Data set [1] in a line: Assessment of solubility: HT solubility in pION buffer, UV spectrophotometry. To be noted: kinetic from dmso stock.
Data set [2] concerns the target T1, human soluble guanylate cyclase alpha 1 and beta 1 subunits (sGC) stably expressed in Chinese hamster ovary cells (Homo sapiens, UniProt Q02108+Q02153).
T1 construct: expressed in transfected cells; host or cells: Chinese hamster ovary cells, stably transfected
T1 sequence (Q02108 1-690 partner): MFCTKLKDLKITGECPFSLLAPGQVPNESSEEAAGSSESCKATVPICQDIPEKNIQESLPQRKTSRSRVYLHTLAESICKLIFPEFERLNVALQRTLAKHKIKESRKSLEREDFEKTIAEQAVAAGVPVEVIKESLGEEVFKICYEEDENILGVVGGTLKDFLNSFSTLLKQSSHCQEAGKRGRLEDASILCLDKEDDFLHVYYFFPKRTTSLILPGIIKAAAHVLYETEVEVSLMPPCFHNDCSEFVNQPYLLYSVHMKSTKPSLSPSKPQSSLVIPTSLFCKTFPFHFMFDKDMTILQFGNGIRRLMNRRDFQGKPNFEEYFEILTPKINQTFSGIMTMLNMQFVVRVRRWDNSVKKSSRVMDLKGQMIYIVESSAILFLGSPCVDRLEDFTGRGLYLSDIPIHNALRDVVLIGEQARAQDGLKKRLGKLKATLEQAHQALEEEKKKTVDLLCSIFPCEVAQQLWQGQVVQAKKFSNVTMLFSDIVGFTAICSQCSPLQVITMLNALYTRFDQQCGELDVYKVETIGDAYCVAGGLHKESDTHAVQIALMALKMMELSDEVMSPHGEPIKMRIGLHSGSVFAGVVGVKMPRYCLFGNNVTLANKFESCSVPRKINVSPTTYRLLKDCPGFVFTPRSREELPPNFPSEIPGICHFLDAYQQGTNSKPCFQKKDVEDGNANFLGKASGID
T1 sequence (Q02153 1-619): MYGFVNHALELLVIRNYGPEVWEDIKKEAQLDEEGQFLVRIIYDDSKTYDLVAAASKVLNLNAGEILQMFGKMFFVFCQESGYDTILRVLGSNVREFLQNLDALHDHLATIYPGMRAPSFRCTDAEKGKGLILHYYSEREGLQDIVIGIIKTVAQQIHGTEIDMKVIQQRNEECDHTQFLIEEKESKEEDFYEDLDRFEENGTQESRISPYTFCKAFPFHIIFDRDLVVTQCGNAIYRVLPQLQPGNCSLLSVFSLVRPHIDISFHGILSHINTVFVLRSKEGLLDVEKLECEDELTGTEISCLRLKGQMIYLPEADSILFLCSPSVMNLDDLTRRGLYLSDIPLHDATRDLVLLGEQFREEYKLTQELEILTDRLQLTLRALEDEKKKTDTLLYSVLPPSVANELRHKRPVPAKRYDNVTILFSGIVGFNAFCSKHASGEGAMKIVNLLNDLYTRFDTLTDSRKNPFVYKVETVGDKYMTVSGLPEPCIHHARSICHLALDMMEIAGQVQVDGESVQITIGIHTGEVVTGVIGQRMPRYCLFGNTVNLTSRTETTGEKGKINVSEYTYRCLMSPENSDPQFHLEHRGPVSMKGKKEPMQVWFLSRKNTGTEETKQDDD
The experiment in a line: sGC cellular activator assay: cGMP in CHO cells expressing human sGC, preincubated with ODQ. The format is cell-based. Conditions: 40 microM ODQ preincubation, 30 min at room temperature, presence or absence of 50% human serum not given, read-out: EC50 nM, Activity of Compounds in Cellular Assay. Summed up: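 EC50 values derive from HTRF cGMP measurement after test compounds act for thirty minutes at room temperature, with or without 50% human serum. Before dosing, the sGC-transfected CHO cells spend one hour with the inhibitor ODQ (40 microM) in IBMX- and 0.1% BSA-containing buffer.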

Where [3] appears, read: pH 6.8, aqueous buffer, Solubility (pH 6.8), pH 6.8.
Where [4] appears, read: pION system solution buffer, pH 4.5, pH 4.5, aqueous buffer, Solubility (pH 4.5), pH 4.5 buffer, 16-19 h incubation, 1.0% DMSO.
Where [5] appears, read: pION system solution buffer, pH 7.4, pH 7.4, aqueous buffer, Solubility (pH 7.4), pH 7.4 buffer, 16-19 h incubation, 1.0% DMSO.

In brackets after ≈: the same amount, converted by molar mass.

In general, solubility refers to the concentration that dissolves in the medium under given conditions. Higher therefore signals much dissolved substance. A word on the EC50: it is the midpoint of the concentration-response curve. In the case of `Cc1ccc(OCc2ccc(CN3CCOC(CO)C3)cc2C#N)c(-c2csc(N3C[C@H]4CC[C@@H](C3)[C@H]4C(=O)O)n2)c1` (some centres unmarked) [Compound 227], the solubility in data set [1] (setting [3]) was 62 µg/mL (≈ 105 µM); in data set [1] (setting [4]), 54 µg/mL (≈ 91.7 µM). For the same molecule, the EC50 in data set [2] was found to be 99 nM.
`Cc1ccc(OCc2ccc(C(=O)N3CCCCC3)cc2C)c(-c2csc(N3C[C@H]4CC[C@@H](C3)[C@@]4(O)C(=O)O)n2)c1` [Compound 216, 8-hydroxy-3-(4-{5-methyl-2-[2-methyl-4-(piperidine-1-carbonyl)-benzyloxy]-phenyl}-thiazol-2-yl)-3-aza-bicyclo[3.2.1]octane-8(syn)-carboxylic acid]: the solubility in data set [1] (setting [3]) was 0.17 µg/mL (≈ 0.295 µM); in data set [1] (setting [4]), under 0.1 µg/mL. The EC50 in data set [2] turned out to be 390 nM.
The corresponding values for `Cc1ccc(OCc2ccc(C(=O)N3CCOCC3)cc2C)c(-c2csc(N3CC4(CC4C(=O)O)C3)n2)c1` (centres unmarked) [Compound 256] are 82 µg/mL (≈ 154 µM), 0.69 µg/mL (≈ 1.29 µM) and 500 nM.
Regarding `Cc1ccc(OCc2ccc(CN3C[C@@H](C)O[C@@H](C)C3)cc2C#N)c(-c2csc(N3C[C@H]4CC[C@@H](C3)[C@H]4C(=O)O)n2)c1` [Compound 356], the solubility in data set [1] (setting [3]) was determined as 1.6 µg/mL (≈ 2.73 µM); in data set [1] (setting [4]), 2.7 µg/mL (≈ 4.6 µM). The EC50 in data set [2] was determined as 24 nM.
Turning to `CCc1cc(C(=O)N2CCOCC2)ccc1COc1ccc(C)cc1-c1csc(N2C[C@H]3CC[C@@H](C2)[C@H]3C(=O)O)n1` [Compound 288], the solubility is 29 µg/mL (≈ 50.4 µM) in data set [1] (setting [3]) and under 0.1 µg/mL in data set [1] (setting [4]). In data set [2], the EC50 came out at 9.7 nM.
Consider `Cc1ccc(OCc2ccc(CN(C)[C@@H]3CCS(=O)(=O)C3)cc2C)c(-c2csc(N3C[C@H]4CC[C@@H](C3)[C@H]4C(=O)O)n2)c1` [Compound 351], for which the solubility in data set [1] (setting [3]) was determined as 1.3 µg/mL (≈ 2.13 µM); in data set [1] (setting [4]), 0.21 µg/mL (≈ 0.344 µM). Further, in data set [2], the EC50 came out at 10 nM.
For `Cc1ccc(OCc2ccc(CN3CCN(C)C(=O)C3C)cc2C)c(-c2csc(N3CC4CCC(C3)C4C(=O)O)n2)c1` (centres unmarked) [Compound 290], the figures for the solubility in data set [1] (setting [3]) and in data set [1] (setting [4]) were 21 µg/mL (≈ 35.7 µM) and 0.69 µg/mL (≈ 1.17 µM), respectively. In data set [2], the EC50 stood at 4.3 nM.
With `Cc1ccc(OCc2ccc(C(=O)N(C)CCC#N)cc2C)c(-c2csc(N3C[C@H]4CC[C@@H](C3)[C@H]4C(=O)O)n2)c1` [Compound 296], the solubility in data set [1] (setting [3]) is 10 µg/mL (≈ 17.9 µM); in data set [1] (setting [4]), under 0.1 µg/mL. The EC50 in data set [2] was 50 nM.
The corresponding values for `Cc1ccc(OCc2ccc(C(=O)N3CCCOCC3)cc2C)c(-c2csc(N3C[C@H]4CC[C@@H](C3)[C@H]4C(=O)O)n2)c1` [Compound 316] are 64 µg/mL (≈ 111 µM), under 0.1 µg/mL and 15 nM.
The like results for `Cc1ccc(OCc2ccc(CN3CCS(=O)(=O)CC3)cc2C)c(-c2csc(N3CC(C4(C(=O)O)CC4)C3)n2)c1` [Compound 259] were, in that order, 19 µg/mL (≈ 32.7 µM), under 0.1 µg/mL and 580 nM.
As for `Cc1ccc(OCc2ccc(CN3CCOCC3C)cc2C#N)c(-c2csc(N3C[C@H]4CC[C@@H](C3)[C@H]4C(=O)O)n2)c1` (some centres unmarked) [Compound 359], the solubility turned out to be 5.8 µg/mL (≈ 10.1 µM) in data set [1] (setting [3]) and 12 µg/mL (≈ 21 µM) in data set [1] (setting [4]). Further, the EC50 in data set [2] turned out to be 36 nM.
`Cc1ccc(OCc2ccc(CN3CCN(C)C(=O)C3)cc2C#N)c(-c2csc(N3C[C@H]4CC[C@@H](C3)[C@H]4C(=O)O)n2)c1` [Compound 354]: the solubility came out at 57 µg/mL (≈ 97.3 µM) in data set [1] (setting [3]) and 0.42 µg/mL (≈ 0.717 µM) in data set [1] (setting [4]). For the same molecule, the half-maximal effective concentration (EC50) in data set [2] amounted to 3.8 nM.
The like results for `Cc1ccc(OCc2ccc(C(=O)N3CCCCC3)cc2C)c(-c2csc(N3C[C@H]4CC[C@@H](C3)[C@@]4(F)C(=O)O)n2)c1` [Compound 221, 8-fluoro-3-(4-{5-methyl-2-[2-methyl-4-(piperidine-1-carbonyl)-benzyloxy]-phenyl}-thiazol-2-yl)-3-aza-bicyclo[3.2.1]octane-8(syn)-carboxylic acid] were, in that order, 0.45 µg/mL (≈ 0.779 µM), under 0.1 µg/mL and 75 nM.
On to `Cc1ccc(OCc2ccc(C(=O)N3CCCCC3)cc2C)c(-c2csc(N3CCCC(C)(C(=O)O)CC3)n2)c1` (centres unmarked) [Compound 229], for which the results for the solubility in data set [1] (setting [3]) and in data set [1] (setting [4]) were 21 µg/mL (≈ 37.4 µM) and 0.4 µg/mL (≈ 0.712 µM), respectively. Also, the EC50 in data set [2] is 76 nM.
The corresponding values for `Cc1ccc(OCc2ccc(C(=O)N(C)Cc3nccn3C)cc2C)c(-c2csc(N3C[C@H]4CC[C@@H](C3)[C@H]4C(=O)O)n2)c1` [Compound 339] are 48 µg/mL (≈ 80 µM), 32 µg/mL (≈ 53.4 µM) and 41 nM.
The like results for `Cc1ccc(OCc2ccc(C(=O)N3CCC[C@H](O)C3)cc2C)c(-c2csc(N3C[C@H]4CC[C@@H](C3)[C@H]4C(=O)O)n2)c1` [Compound 319] were, in that order, 12 µg/mL (≈ 20.8 µM), 0.23 µg/mL (≈ 0.399 µM) and 70 nM.
In the case of `CCN(CCO)C(=O)c1ccc(COc2ccc(C)cc2-c2csc(N3C[C@H]4CC[C@@H](C3)[C@H]4C(=O)O)n2)c(C)c1` [Compound 298], the figures for the solubility in data set [1] (setting [3]) and in data set [1] (setting [4]) were 66 µg/mL (≈ 117 µM) and 0.32 µg/mL (≈ 0.568 µM), respectively. Moreover, the EC50 in data set [2] was determined as 59 nM.
The like results for `Cc1ccc(OCc2c(C)cc(C(=O)N3CCOCC3)cc2C)c(-c2csc(N3C[C@H]4CC[C@@H](C3)[C@H]4C(=O)O)n2)c1` [Compound 285] were, in that order, 54 µg/mL (≈ 93.8 µM), under 0.1 µg/mL and 120 nM.
The corresponding values for `CCOC1CCN(C(=O)c2ccc(COc3ccc(C)cc3-c3csc(N4C[C@H]5CC[C@@H](C4)[C@H]5C(=O)O)n3)c(C)c2)C1` (some centres unmarked) [Compound 332] are 35 µg/mL (≈ 59.3 µM), 0.14 µg/mL (≈ 0.237 µM) and 30 nM.
Take `Cc1ccc(OCc2ccc(C(=O)N3CCOCC3)cc2C)c(-c2csc(N3C[C@@H]4[C@H](C3)[C@@H]4C(=O)O)n2)c1` [Compound 247]: the solubility in data set [1] (setting [3]) worked out at 70 µg/mL (≈ 131 µM); in data set [1] (setting [4]), 46 µg/mL (≈ 86.2 µM). In data set [2], the 50% effective concentration (EC50) was 720 nM.
`Cc1ccc(OCc2ccc(C(=O)N(C)CC(C)(C)CO)cc2C)c(-c2csc(N3C[C@H]4CC[C@@H](C3)[C@H]4C(=O)O)n2)c1` [Compound 346]: the figures for the solubility in data set [1] (setting [3]), in data set [1] (setting [4]) and in data set [1] (setting [5]) were 36 µg/mL (≈ 60.8 µM), 0.46 µg/mL (≈ 0.777 µM) and over 54 µg/mL, respectively. The half-maximal effective concentration (EC50) in data set [2] was 67 nM.
As to `CNC(=O)CN(C)C(=O)c1ccc(COc2ccc(C)cc2-c2csc(N3C[C@H]4CC[C@@H](C3)[C@H]4C(=O)O)n2)c(C)c1` [Compound 347], the solubility in data set [1] (setting [3]) was 70 µg/mL (≈ 121 µM); in data set [1] (setting [4]) it was 5.8 µg/mL (≈ 10.1 µM); in data set [1] (setting [5]) it was over 53 µg/mL. Also, the EC50 in data set [2] came to 260 nM.
Turning to `Cc1ccc(OCc2ccc(CN3CCS(=O)(=O)CC3)cc2C#N)c(-c2csc(N3C[C@H]4CC[C@@H](C3)[C@H]4C(=O)O)n2)c1` [Compound 267], the solubility is 13 µg/mL (≈ 21.4 µM) in data set [1] (setting [3]) and under 0.1 µg/mL in data set [1] (setting [4]). Moreover, the EC50 in data set [2] is 44 nM.
Regarding `Cc1ccc(OCc2ccc(CN3CCN(C(=O)C4CC4)CC3)cc2C#N)c(-c2csc(N3C[C@H]4CC[C@@H](C3)[C@H]4C(=O)O)n2)c1` [Compound 265], the solubility in data set [1] (setting [3]) worked out at 1.9 µg/mL (≈ 3.04 µM); in data set [1] (setting [4]), 0.79 µg/mL (≈ 1.26 µM). Also, the EC50 in data set [2] was 42 nM.
Take `Cc1ccc(OCc2ccc(C(=O)N3CCNC(=O)C3)cc2C)c(-c2csc(N3C[C@H]4CC[C@@H](C3)[C@H]4C(=O)O)n2)c1` [Compound 314]: the solubility in data set [1] (setting [3]) worked out at 68 µg/mL (≈ 118 µM); in data set [1] (setting [4]), 2.4 µg/mL (≈ 4.18 µM). The EC50 in data set [2] amounted to 63 nM.
The corresponding values for `Cc1ccc(OCc2ccc(CN3CCN(C(=O)C4CC4)CC3)cc2C)c(-c2csc(N3CC[C@@]4(C(=O)O)C[C@H]4C3)n2)c1` [Compound 225] are 0.3 µg/mL (≈ 0.499 µM), 4.6 µg/mL (≈ 7.66 µM) and 7.3 nM.
